{"source": "patent US5043166A", "about": "“Liposome/anthraquinone drug composition and method” (priority 1989, dated 1991)", "key": {"[1]": {"assay": "fluorescence of DXR-Fe(III) complex with SUVs (drug modification)", "type": "physicochemical", "conditions": "in presence of SUVs with saturated and/or unsaturated phospholipids", "text": "The studies examined the binding of DXR to ferric iron, both in the presence and absence of small unilamellar vesicles (SUVs) formed from the saturated phospholipid dimyristylphosphatidylcholine (DMPC).\nOne measure of this modification is a change in the 590/560 nm ratio of the fluorescence spectra, which would result from modification of the antracene ring."}, "[2]": {"assay": "repeated administration of graded doses of F-DXR and L-DXR", "type": "in vivo, mice", "conditions": "mouse, in vivo, iv, 10 mg/kg, read-out: % Surviving; for survival at 1008 h: day 42, 10 mg/kg", "method": "(§1) L-DXR was prepared as in Example I, to final DXR concentrations of 0.5, 0.75, and 1.0 mg/ml, corresponding to phospholipid concentrations of 8, 12, and 16 μmole/ml, respectively, and cholesterol concentrations of 3.2, 4.8, and 6.4 μmole/ml, respectively. Free DXR (F-DXR) was prepared in sterile, pyrogen-free physiologic saline solution to final concentrations of 0.5, 0.75, and 1 mg/ml.\n(§2) Sabra mice were divided into groups of 15 mice. Three different doses of either F-DXR or L-DXR were tested: 5, 7.5, and 10 mg/kg body weight. Each dose level was tested on 15 male and 15 female mice. Treatment was administered as a bolus injection through the tail vein on days 0, 14, 28, 42, 56, 70, 84, and 98 of the experiment. The pulsed injection scheme was used for the purpose of achieving high cumulative doses, prolonging the period of exposure of the animals to the drug, and mimicking the way DXR is usually administered in clinical practice. In view of the toxicity observed after single injection (Example XI), DXR was administered at a maximum 10 mg/kg dosage so that the occurrence of acute toxicity would be reduced or nil. In order to avoid the overlapping myelosuppression of successive treatment, 14 days were allowed between successive injections, based on previous observations that full regeneration of the activity of myeloid centers in the spleen after treatment with 10 mg/kg of DXR occurred between 7-12 days after drug administration.\n(§3) During the course of the experiment, mice were inspected daily and survival curves were recorded. Whenever possible, dead mice were autopsied and a limited sample of organs sent for histopathological examination. Blood counts and body weights were checked weekly. The blood counts were done in a Coulter analyzer with a 20 μl sample obtained from the retro-orbital blood sinuses. One-third of the mice of each group were sacrificed on day 42, after 3 injections. A second third was sacrificed on day 84, after 6 injections. The remaining mice were sacrificed on day 180, 82 days after the 8the and last injection. Before sacrifice, the mice were bled under light ether anesthesia to obtain serum for the biochemical tests. The animals were then dissected and the removed organs, after weighing, were fixed in Bouin's solution and processed for light microscopy examination with hematoxylin-eosin-phosphomolybdic acid: light green stain.\n(§4) (c) Effects on Body and Organ Weights. […] The weight measurements were made 42, 84, and 180 days after initial drug injection. The body and organ weights are expressed in percent relative to untreated mice. The percent survivors at each of the three time points is indicated at the top in the table; the dashes (-) indicate no survivors."}, "[3]": {"tested_on": "Sabra mice", "assay": "repeated administration of graded doses of F-DXR and L-DXR", "type": "in vivo", "method": "as §1, §2, §3, §4"}, "[4]": {"tested_on": "human cancer patients", "conditions": "cited from earlier work"}}, "note": "Like-named read-outs stand apart in the source and are kept apart here."}
{"smiles": "COc1cccc2c1C(=O)c1c(O)c3c(c(O)c1C2=O)C[C@@](O)(C(=O)CO)C[C@@H]3O[C@H]1C[C@H](N)[C@H](O)[C@H](C)O1", "note": "[DXR, doxorubicin]", "values": [{"measurement": "chemical modification with ferric iron", "setting": "[1]", "value": "relatively rapid and irreversible chemical modification"}, {"measurement": "survival at 1008 h", "setting": "[2]; female", "value": 93, "unit": "%"}, {"measurement": "survival at 2016 h", "setting": "[2]; female, day 84, 10 mg/kg", "value": 27, "unit": "%"}, {"measurement": "survival at 1008 h", "setting": "[2]; male", "value": 87, "unit": "%"}, {"measurement": "lower limb weakness", "setting": "[3]; 10 mg/kg", "value": "marked weakness of the lower limbs"}, {"measurement": "organ weights (liver, spleen, kidneys, heart)", "setting": "[3]; 10 mg/kg", "value": "substantial weight reduction"}, {"measurement": "mortality rates, all groups", "setting": "[3]; 5, 7.5 and 10 mg/kg", "value": "Significant mortality rates"}, {"measurement": "white cell count", "setting": "[3]; 7 and 14 days after each injection", "value": "no significant differences between the F-DXR and the L-DXR treated groups"}, {"measurement": "findings in animals dying", "setting": "[3]; 7.5 and 5 mg/kg", "value": "pleural and peritoneal effusions, cardiomegaly, and lung congestion"}, {"measurement": "Body weight, percent relative to untreated mice", "setting": "[3]; female, day 42, 10 mg/kg", "value": 95, "unit": "%"}, {"measurement": "Heart weight, percent relative to untreated mice", "setting": "[3]; female, day 42, 10 mg/kg", "value": 97, "unit": "%"}, {"measurement": "Kidneys weight, percent relative to untreated mice", "setting": "[3]; female, day 42, 10 mg/kg", "value": 78, "unit": "%"}, {"measurement": "Liver weight, percent relative to untreated mice", "setting": "[3]; female, day 42, 10 mg/kg", "value": 107, "unit": "%"}, {"measurement": "Spleen weight, percent relative to untreated mice", "setting": "[3]; female, day 42, 10 mg/kg", "value": 78, "unit": "%"}, {"measurement": "Body weight, percent relative to untreated mice", "setting": "[3]; female, day 84, 10 mg/kg", "value": 84, "unit": "%"}, {"measurement": "Heart weight, percent relative to untreated mice", "setting": "[3]; female, day 84, 10 mg/kg", "value": 74, "unit": "%"}, {"measurement": "Kidneys weight, percent relative to untreated mice", "setting": "[3]; female, day 84, 10 mg/kg", "value": 91, "unit": "%"}, {"measurement": "Liver weight, percent relative to untreated mice", "setting": "[3]; female, day 84, 10 mg/kg", "value": 91, "unit": "%"}, {"measurement": "Spleen weight, percent relative to untreated mice", "setting": "[3]; female, day 84, 10 mg/kg", "value": 67, "unit": "%"}, {"measurement": "sex difference in toxicity", "setting": "[3]; high and intermediate dosages", "value": "slight trend towards higher toxicity in male as compared to female mice"}, {"measurement": "Body weight, percent relative to untreated mice", "setting": "[3]; male, day 42, 10 mg/kg", "value": 75, "unit": "%"}, {"measurement": "Heart weight, percent relative to untreated mice", "setting": "[3]; male, day 42, 10 mg/kg", "value": 82, "unit": "%"}, {"measurement": "Kidneys weight, percent relative to untreated mice", "setting": "[3]; male, day 42, 10 mg/kg", "value": 76, "unit": "%"}, {"measurement": "Liver weight, percent relative to untreated mice", "setting": "[3]; male, day 42, 10 mg/kg", "value": 75, "unit": "%"}, {"measurement": "Spleen weight, percent relative to untreated mice", "setting": "[3]; male, day 42, 10 mg/kg", "value": 71, "unit": "%"}, {"measurement": "previous treatment outcome", "setting": "[4]; patient 5, hepatoma", "value": "Previous failure"}, {"measurement": "previous treatment outcome", "setting": "[4]; patient 8, hepatoma", "value": "failure"}]}
